Assay results from patent US11555047B2, “One-step synthesis of phosphate-based inhibitors and applications thereof” (UNIVERSITY OF SOUTH CAROLINA, priority 2019, dated 2023).
Like-named read-outs stand apart in the source and are kept apart here.

Experiments:
[1] = biological target: T1, TcRPI-B (Trypanosoma cruzi, UniProt A0ACM8Q8A9); assay: Trypsin digestion LC/MSMS of TcRPI-B exposed to Compound B; type: binding; conditions: 500 μM compound, 100 μM TcRPI-B, 4° C., 30 minutes
Method: Sample preparation: Purified TcRPI-B was buffer exchanged into 50 mM ammonium bicarbonate (pH 8.0) by using a PD-10 desalting column (GE Life Sciences). The concentration of TcRPI-B was adjusted to 100 μM for the monomer [TcRPI-B: M.W.=19,816 g/mol; ε280=5,120 M^−1 cm^−1] using an Agilent 8453 UV-Visible spectrophotometer. A protein test sample was incubated with compound B (FIG. 2) at a final concentration of 500 μM at 4° C. for 30 minutes and a control sample was prepared that was in the absence of compound B. Samples to be analyzed by LC/MSMS were first quantitated for protein content using a Pierce™ bicinchoninic acid (BCA) Protein Assay Kit and normalized to 50 μg of protein by diluting the appropriate amount of sample in 50 mM ammonium bicarbonate. Normalized samples were digested with trypsin at a 50:1 protein:trypsin concentration. Samples were incubated for 4 hours and then aliquoted for LC-MS analysis.
Nanoflow LC: Chromatographic separation was achieved using a Thermo Scientific™ EASY-nLC™ 1200 system (Bremen, Germany). Pico-frit columns were purchased from New Objective (Woburn, Mass.) and bomb packed to a length of 20-30 cm with reverse phase ReproSil-Pur® 120 Å C18-AQ 3 μm particles (Dr. Maisch, Germany). […]

[2] = system: TcRPE-1; assay: TcRPE-1 coupled enzyme assay (same reaction mixture, without TcRPI-B, 4 mM Ru5P); type: biochemical, Trypanosoma cruzi; conditions: mean of three determinations ± SD
Method: (§1) The activity of TcRPI-B was determined by a coupled enzyme assay following consumption of NADH at 340 nm, at 30° C., in a Beckman Coulter DU®600 Spectrophotometer, using a mixture containing 50 mM triethanolamine (pH 7.5), 5 mM MgCl2, […], 0.025 mM thiamine pyrophosphate, 1 unit of transketolase (EC 2.2.1.1), 1 unit of ribulose 5-phosphate 3-epimerase (EC 5.1.3.1), 20 units of triosephosphate isomerase (EC 5.3.1.1), 2 units of α-glycerophosphate dehydrogenase (EC 1.1.1.8), and 2 mM R5P for the screening of the inhibitors. For the determination of Ki, the concentration of R5P was 0.4 mM, 0.8 mM, and 2.0 mM.
(§2) The activity of TcRPE-1 was determined in the same reaction mixture, without TcRPI-B, and replacing R5P by 4 mM ribulose 5-phosphate (Ru5P). […] The reaction was started with the addition of TcRPI-B and further incubated for 10 minutes in the same tube, to surpass the lag observed with the recombinant RPI, and then the mixture was transferred to the spectrophotometer cuvette and the linear part of the progress curve was registered for 15 minutes. The screening of the inhibitors was performed using them at 0, 0.2, 0.5, 1.0 and 2.0 mM for both enzymes, TcRPI-B and TcRPE-1, and for the Ki determination for compound B (FIG. 4) the concentrations used were: 0, 10, 20, 40, 60 and 80 μM, at each R5P concentration used.

[3] = biological target: T1, TcRPI-B; assay: TcRPI-B coupled enzyme assay following consumption of NADH at 340 nm; type: biochemical; conditions: for activity at 200 µM: compound 0.2 mM; for activity at 200 µM / activity at 500 µM / activity at 1000 µM / activity at 2000 µM: 2 mM R5P, mean of three determinations ± SD, read-out: percentage of TcRPI-B activity; for activity at 500 µM: compound 0.5 mM; for activity at 1000 µM: compound 1.0 mM; for activity at 2000 µM: compound 2.0 mM
Method: as §1, §2

[4] = biological target: T1, TcRPI-B; conditions: known TcRPI-B inhibitors, FIG. 2; cited from earlier work

| covalent labeling of TcRPI-B peptide V66-R86 [1] | percentage of TcRPE-1 activity ([2]; compound 0.2 mM) [%] | percentage of TcRPE-1 activity ([2]; compound 0.5 mM) [%] | percentage of TcRPE-1 activity ([2]; compound 1.0 mM) [%] | percentage of TcRPE-1 activity ([2]; compound 2.0 mM) [%] | Ki ([3]; Dixon plots, R5P 0.4, 0.8 and 2 mM, inhibitor 0-80 μM, mean of four independent experiments, read-out: inhibition constant (Ki)) [µM] | activity at 200 µM [3] [%] | activity at 500 µM [3] [%] | activity at 1000 µM [3] [%] | activity at 2000 µM [3] [%] | type of inhibition ([3]; plot of [R5P]/V vs. [B], three lines parallel) | Structure (SMILES) | Ki [4] [µM] |
| --- | --- | --- | --- | --- | --- | --- | --- | --- | --- | --- | --- | --- |
| bound irreversibly to C69 | 89.5 ± 4 | 89.5 ± 4 | 103 ± 5 | 57.4 ± 0.4 | 5.5 ± 0.1 | 25.2 ± 3.5 | 7.5 ± 3.9 | 1.2 ± 0.3 | 0 | competitive inhibition | O=C(CI)NCCOP(=O)(O)O [Compound B, 2-(2-iodoacetamido)ethyl dihydrogen phosphate] | – |
| – | 91.1 ± 5.1 | 85.8 ± 4.4 | 77.3 ± 7.5 | 65.1 ± 5.2 | – | 78.5 ± 4.8 | 62.7 ± 5.9 | 41.3 ± 2.7 | 18.3 ± 2.5 | – | O=C(CBr)NCCOP(=O)(O)O [Compound C, 2-(2-bromoacetamido)ethyl dihydrogen phosphate] | – |
| – | 100 ± 5 | 91.9 ± 4.3 | 87.4 ± 3.1 | 85.9 ± 4.4 | – | 98.1 ± 3.2 | 97.4 ± 0.5 | 95.3 ± 4.2 | 89.2 ± 3.5 | – | O=C(Cc1ccccc1)NCCOP(=O)(O)O [Compound A, 2-(2-phenylacetamido)ethyl dihydrogen phosphate] | – |
| – | 100 ± 6 | 103 ± 5 | 95.5 ± 7.9 | 82.6 ± 12 | – | 107 ± 9 | 105 ± 7 | 98.5 ± 2.1 | 83.7 ± 8.9 | – | O=C(CCl)NCCOP(=O)(O)O [Compound D, 2-(2-chloroacetamido)ethyl dihydrogen phosphate] | – |
| – | – | – | – | – | – | – | – | – | – | – | O=C[C@H](O)[C@H](O)[C@H](O)[C@H](O)COP(=O)(O)O [AlI6P] | 15000 |
| – | – | – | – | – | – | – | – | – | – | – | O=C(NO)[C@H](O)[C@H](O)COP(=O)(O)O [Compound 4PEH, 4-phospho-D-erythronohydroxamic acid] | 1200 |

| Structure (SMILES) | covalent labeling of TcRPI-B peptide V66-R86 [1] | percentage of TcRPE-1 activity ([2]; compound 0.2 mM) [%] | percentage of TcRPE-1 activity ([2]; compound 0.5 mM) [%] | percentage of TcRPE-1 activity ([2]; compound 1.0 mM) [%] | percentage of TcRPE-1 activity ([2]; compound 2.0 mM) [%] | Ki ([3]; Dixon plots, R5P 0.4, 0.8 and 2 mM, inhibitor 0-80 μM, mean of four independent experiments, read-out: inhibition constant (Ki)) [µM] | activity at 200 µM [3] [%] | activity at 500 µM [3] [%] | activity at 1000 µM [3] [%] | activity at 2000 µM [3] [%] | type of inhibition ([3]; plot of [R5P]/V vs. [B], three lines parallel) | Ki [4] [µM] |
| --- | --- | --- | --- | --- | --- | --- | --- | --- | --- | --- | --- | --- |
| O=C(CF)NCCOP(=O)(O)O [Compound E, 2-(2-fluoroacetamido)ethyl dihydrogen phosphate] | – | 111 ± 10 | 103 ± 7 | 93.2 ± 11.1 | 83.5 ± 9.7 | – | – | – | – | – | – | – |
